Results: the supplement of paper PMC11451515

Legend:
P12-Ichikawa [1] = assay: AUC of viability dose-response curve (% viability x log10 dose units); higher = less sensitive; details: 48 h
Outline: (§1)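 Over 48 h at 37°C, leukemia cells in 1536-well plates (500 or 1000 cells/well), adapted to each medium, received library compounds in DMSO at 11 threefold doses from 47 μM to 0.79 nM. CellTiter-Glo One luminescence, normalised per plate to DMSO and cell-free wells, was fitted by a four-parameter log-logistic function of log10 dose. The area under the curve was then integrated by trapezoidal rule, after scaling curves above full viability and removing those that failed quality control.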

SEM cells [2] = assay: as above; details: 48 h
Outline: as §1

NOMO1 = assay: as above; details: 48 h
Outline: as §1

SEM cells [3] = assay: cell viability relative to DMSO control; higher = less cytotoxic; details: 48 h
Outline: (§2)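 Viability values are per-plate percentages of DMSO wells, with background from cell-free wells. Library compounds in DMSO were pin-dosed, in an 11-point threefold series from 47 μM to 0.79 nM, onto NOMO1 or SEM (500 cells/well) or P12-Ichikawa (1000 cells/well) leukemia cells in 1536-well plates (5 μl). Those cells had been adapted for at least four passages in each medium, and CellTiter-Glo One luminescence was read after 48 h at 37°C.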

P12-Ichikawa [4] = assay: as above; details: RPMI 5 mM glucose + 10% dialyzed FBS, 48 h
Outline: as §2

CC(C)N(CCNC(=O)CN1CCCC1=O)C(C)C
AUC of viability dose-response curve
Details	NOMO1	P12-Ichikawa [1]	SEM cells [2]
HPLM + 10% dialyzed FBS	430	460	477
RPMI 5 mM glucose + 10% FBS	456	453	460
RPMI 5 mM glucose + 10% dialyzed FBS	461	435	476

CCCC1=NC(=C2[N]1NC(=N\C2=O)/C3=CC(=CC=C3OCC)[S+]([O-])(=O)N4CCN(CC)CC4)C
AUC of viability dose-response curve
Details	NOMO1	P12-Ichikawa [1]	SEM cells [2]
HPLM + 10% dialyzed FBS	402	421	417
RPMI 5 mM glucose + 10% FBS	409	402	407
RPMI 5 mM glucose + 10% dialyzed FBS	406	399	401

SEM cells [3], RPMI 5 mM glucose + 10% dialyzed FBS
Details	cell viability [%]
0.000781 µM	125
0.00234 µM	115
0.00702 µM	128
0.0211 µM	131
0.0632 µM	143
0.19 µM	134
0.569 µM	140
1.71 µM	145
5.12 µM	106
15.4 µM	10.4
46.1 µM	6.51

O=c1c(-c2ccc(O)cc2)coc2cc(O[C@@H]3O[C@H](CO)[C@@H](O)[C@H](O)[C@H]3O)ccc12
AUC of viability dose-response curve
Details	NOMO1	P12-Ichikawa [1]	SEM cells [2]
HPLM + 10% dialyzed FBS	456	473	459
RPMI 5 mM glucose + 10% FBS	468	469	450
RPMI 5 mM glucose + 10% dialyzed FBS	467	470	449

cell viability [%], SEM cells [3]
Details	HPLM + 10% dialyzed FBS	RPMI 5 mM glucose + 10% dialyzed FBS
0.000781 µM	114	124
0.00234 µM	115	124
0.00702 µM	115	128
0.0211 µM	122	119
0.0632 µM	114	135
0.19 µM	120	137
0.569 µM	123	126
1.71 µM	110	111
5.12 µM	121	118
15.4 µM	91.1	100
46.1 µM	79.1	70.1

CCCNC(=O)[C@H]1O[C@@H]1C(=O)N[C@H](C(=O)N1CCC[C@H]1C(=O)OC)C(C)CC (some centres not stated)
AUC of viability dose-response curve
Details	NOMO1	P12-Ichikawa [1]	SEM cells [2]
HPLM + 10% dialyzed FBS	444	446	439
RPMI 5 mM glucose + 10% FBS	421	416	420
RPMI 5 mM glucose + 10% dialyzed FBS	449	424	433

NC1(C(=O)N[C@@H](CCO)c2ccc(Cl)cc2)CCN(c2ncnc3[nH]ccc23)CC1
AUC of viability dose-response curve
Details	NOMO1	P12-Ichikawa [1]	SEM cells [2]
HPLM + 10% dialyzed FBS	409	391	375
RPMI 5 mM glucose + 10% FBS	413	362	378
RPMI 5 mM glucose + 10% dialyzed FBS	423	378	356

COC1CCC(C(=O)c2ccc3nc4c(cc3c2)CCCO4)CC1 (configuration not stated)
AUC of viability dose-response curve
Details	NOMO1	P12-Ichikawa [1]	SEM cells [2]
HPLM + 10% dialyzed FBS	421	458	458
RPMI 5 mM glucose + 10% FBS	430	453	422
RPMI 5 mM glucose + 10% dialyzed FBS	437	460	438

OC[C@H]1O[C@H](C[C@@H]1O)[N]2C=NC3=C2\N=C/NC[C@H]3O
AUC of viability dose-response curve
Details	NOMO1	P12-Ichikawa [1]	SEM cells [2]
HPLM + 10% dialyzed FBS	444	457	450
RPMI 5 mM glucose + 10% FBS	465	457	466
RPMI 5 mM glucose + 10% dialyzed FBS	434	475	469

CC(=O)O[C@H]1C[C@@H]2CC[C@@H]3[C@H](CC[C@@]4(C)[C@H]3C[C@H]([N+]3(C)CCCCC3)[C@@H]4OC(C)=O)[C@@]2(C)C[C@@H]1[N+]1(C)CCCCC1
Details	AUC of viability dose-response curve	cell viability [%]
NOMO1, HPLM + 10% dialyzed FBS	459	–
NOMO1, RPMI 5 mM glucose + 10% FBS	466	–
NOMO1, RPMI 5 mM glucose + 10% dialyzed FBS	472	–
P12-Ichikawa [1], HPLM + 10% dialyzed FBS	464	–
P12-Ichikawa [1], RPMI 5 mM glucose + 10% FBS	457	–
P12-Ichikawa [1], RPMI 5 mM glucose + 10% dialyzed FBS	465	–
P12-Ichikawa [4], 0.000781 µM	–	123
P12-Ichikawa [4], 0.00234 µM	–	134
P12-Ichikawa [4], 0.00702 µM	–	121
P12-Ichikawa [4], 0.0211 µM	–	124
P12-Ichikawa [4], 0.0632 µM	–	132
P12-Ichikawa [4], 0.19 µM	–	125
P12-Ichikawa [4], 0.569 µM	–	127
P12-Ichikawa [4], 1.71 µM	–	117
P12-Ichikawa [4], 5.12 µM	–	125
P12-Ichikawa [4], 15.4 µM	–	117
P12-Ichikawa [4], 46.1 µM	–	113
SEM cells [2], HPLM + 10% dialyzed FBS	477	–
SEM cells [2], RPMI 5 mM glucose + 10% FBS	438	–
SEM cells [2], RPMI 5 mM glucose + 10% dialyzed FBS	465	–

SEM cells [3], HPLM + 10% dialyzed FBS
Details	cell viability [%]
0.000781 µM	110
0.00234 µM	110
0.00702 µM	119
0.0211 µM	126
0.0632 µM	108
0.19 µM	108
0.569 µM	115
1.71 µM	121
5.12 µM	109
15.4 µM	110
46.1 µM	117
